The supplement of paper PMC10307832

How the values were obtained:
Test in all cases: relative viability (nuclei count vs DMSO), 5 days (fraction); higher = more cells survive
[1] = compound: COC1=CC=C(C=C1)CN2C=CC3=C2C=C(C=C3)C(=O)NO + Nc1nc2[nH]cc(CCc3ccc(C(=O)N[C@@H](CCC(=O)O)C(=O)O)cc3)c2c(=O)[nH]1 [Pemetrexed] (partner 0.2 µM)
How it was run: (§1)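 Medians of duplicate plates are given as relative viability. That measure is the nuclei count in treated wells divided by the count in vehicle wells. Counts were taken on 4× images of lung cancer cell lines in 1536-well plates, 5 days after pin-tool dosing the day after seeding with one drug alone or a fixed anchor-drug dose plus five library-drug doses (not always all listed) in √10 steps.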

Veliparib + OSI-027 = compound: C[C@]1(c2nc3c(C(N)=O)cccc3[nH]2)CCCN1 [Veliparib] + COc1cccc2cc(-c3nc([C@H]4CC[C@H](C(=O)O)CC4)n4ncnc(N)c34)[nH]c12 [OSI-027] (partner 0.5 µM)
How it was run: as §1

Veliparib + Decitabine = compound: C[C@]1(c2nc3c(C(N)=O)cccc3[nH]2)CCCN1 [Veliparib] + Nc1ncn([C@H]2C[C@H](O)[C@@H](CO)O2)c(=O)n1 [Decitabine] (partner 2 µM)
How it was run: as §1

Veliparib + Olaparib = compound: C[C@]1(c2nc3c(C(N)=O)cccc3[nH]2)CCCN1 [Veliparib] + O=C(c1cc(Cc2n[nH]c(=O)c3ccccc23)ccc1F)N1CCN(C(=O)C2CC2)CC1 [Olaparib] (partner 8 µM)
How it was run: as §1

Row | Cell Line | relative viability ([1]; first compound 0.08 µM) | relative viability ([1]; first compound 0.253 µM) | relative viability ([1]; first compound 0.8 µM) | relative viability ([1]; first compound 2.53 µM) | relative viability ([1]; first compound 8 µM) | relative viability (Veliparib + OSI-027; first compound 0.02 µM) | relative viability (Veliparib + OSI-027; first compound 0.06325 µM) | relative viability (Veliparib + OSI-027; first compound 0.2 µM) | relative viability (Veliparib + OSI-027; first compound 0.6325 µM) | relative viability (Veliparib + OSI-027; first compound 2 µM) | relative viability (Veliparib + Decitabine; first compound 0.02 µM) | relative viability (Veliparib + Decitabine; first compound 0.06325 µM) | relative viability (Veliparib + Decitabine; first compound 0.2 µM) | relative viability (Veliparib + Decitabine; first compound 0.6325 µM) | relative viability (Veliparib + Decitabine; first compound 2 µM) | relative viability (Veliparib + Olaparib; first compound 0.02 µM) | relative viability (Veliparib + Olaparib; first compound 0.06325 µM) | relative viability (Veliparib + Olaparib; first compound 0.2 µM) | relative viability (Veliparib + Olaparib; first compound 0.6325 µM) | relative viability (Veliparib + Olaparib; first compound 2 µM)
1 | HCC-78 | 0.901 | 0.872 | 0.938 | 0.918 | 0.66 | 0.4 | 0.364 | 0.339 | 0.402 | 0.423 | 0.637 | 0.589 | 0.603 | 0.517 | 0.491 | 0.755 | 0.745 | 0.82 | 0.742 | 0.806
2 | 201T | 0.314 | 0.349 | 0.322 | 0.333 | 0.324 | 0.659 | 0.58 | 0.713 | 0.759 | 0.722 | 0.886 | 0.844 | 0.795 | 0.795 | 0.785 | 0.809 | 0.906 | 0.852 | 0.824 | 0.83
3 | NCI-H596 | 0.42 | 0.501 | 0.5 | 0.469 | 0.492 | 0.805 | 0.696 | 0.779 | 0.783 | 0.68 | 1.14 | 1 | 0.969 | 0.814 | 0.965 | 0.832 | 0.587 | 0.75 | 0.7 | 0.738
4 | LXF-289 |  | 0.937 | 0.872 | 0.907 | 0.881 | 0.836 | 0.781 | 0.799 | 0.711 | 0.759 | 0.362 | 0.311 | 0.342 | 0.283 | 0.332 | 1 | 1.04 | 1.01 | 0.986 | 1.16
5 | NCI-H2087 | 0.575 | 0.56 | 0.669 | 0.599 | 0.535 | 0.303 | 0.475 | 0.504 | 0.456 | 0.539 | 0.255 | 0.244 | 0.237 | 0.2 | 0.174 | 0.648 | 0.484 | 0.642 | 0.589 | 0.681
6 | NCI-H441 | 0.26 | 0.264 | 0.273 | 0.278 | 0.261 | 0.622 | 0.539 | 0.553 | 0.585 | 0.617 | 0.227 | 0.216 | 0.179 | 0.212 | 0.228 | 0.691 | 0.637 | 0.573 | 0.598 | 0.595
7 | NCI-H3122 | 0.2 | 0.208 | 0.195 | 0.209 | 0.193 | 0.829 | 0.923 | 0.935 | 0.96 | 0.991 | 0.393 | 0.386 | 0.361 | 0.326 | 0.395 | 0.628 | 0.571 | 0.549 | 0.619 | 0.623
